From PubChem BioAssay (NCI)
Where “and” joins values, the source holds several entries; their conditions need not be identical. Equal values may be shown once.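 All cell lines were grown in 96-well plates and treated with compound for 48 hours. The concentration for 50% growth inhibition is given as GI50. TGI: total growth inhibition.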

Legend:
Assay in all cases: NCI-60 cell line screen, 48 h
[1] = test system: NCI-H226 lung
[2] = test system: KM12 colon
[3] = test system: SK-MEL-5 melanoma
[4] = test system: A498 renal
[5] = test system: U251 CNS
[6] = test system: MOLT-4 leukemia
[7] = test system: OVCAR-8 ovarian
[8] = test system: A549 NSCLC
[9] = test system: K-562 leukemia
[10] = test system: SF-268 CNS

SMILES	GI50 [1] [µM]	TGI [1]	GI50 [2]	TGI [2] [µM]	GI50 [3]	TGI [3]	GI50 [4]	TGI [4]	GI50 [5]	TGI [5]	GI50 [6]	TGI [6]	GI50 [7]	TGI [7]	GI50 [8] [µM]	TGI [8]	GI50 [9]	TGI [9]	GI50 [10]	TGI [10]
CC(C)(C)CC(C)(C)N(CSc1ccc(Cl)cc1)CSc1ccc(Cl)cc1	0.836	2.67 µM	0.486 µM	4.55	1.29 µM	2.61 µM	0.207 µM	0.863 µM	0.415 µM	2.09 µM	0.841 µM	5.09 µM	1.74 µM	7.57 µM	0.452	7.7 µM	3.49 µM	26 µM	0.803 µM	4.39 µM
COc1cc(-c2nc(-c3nnc(-c4ccc(F)c(Cl)c4)o3)c3ccccn23)cc(OC)c1OC	2.38	6.07 µM			3.03 µM	> 100 µM	1.55 µM	6.76 µM	1.86 µM	4.43 µM	> 100 µM	> 100 µM	1.69 µM	4.44 µM			4.34 µM	> 100 µM	2.03 µM	5.48 µM
COc1ccc2c(c1)CC[C@@H]1[C@@H]2CC[C@]2(C)c3[nH]ncc3C[C@@H]12	16.6	> 50 µM	10.1 µM	21.6	8.16 µM	16.4 µM	25.9 µM	> 50 µM	18.2 µM	> 50 µM	1.8 µM	40.6 µM	15.6 µM	> 50 µM	15.2	> 50 µM			19.6 µM	> 50 µM
CC(N)(Cc1c[nH]c2ccccc12)C(=O)O (stereo unspecified)	> 2500	> 2500 µM	> 2500 µM	> 2500	2350 µM	> 2500 µM	> 2500 µM	> 2500 µM	> 2500 µM	> 2500 µM	> 2500 µM	> 2500 µM	> 2500 µM	> 2500 µM	> 2500	> 2500 µM	> 2500 µM	> 2500 µM	> 2500 µM	> 2500 µM
COc1cc[c]([Sb]([Br])([CH]=C(C)C)([CH]=C(C)C)[CH]=C(C)C)cc1			1.98 µM	25.6	3.03 µM	9.92 µM	28.8 µM	> 100 µM	9.37 µM	72.8 µM	10.6 µM	> 100 µM	8.15 µM	> 100 µM	11.3	> 100 µM	4.54 µM	> 100 µM	3.52 µM	35.8 µM
O=C1OCC2=C1C(c1cccc(C(F)(F)F)c1)c1cc3c(cc1N2CCO)OCO3 (stereo unspecified)	21.7	> 50 µM	1.88 µM	> 50	0.937 µM	15.9 µM	1.08 µM	10.9 µM	1.82 µM	> 50 µM	1.02 µM	> 50 µM	2.51 µM	> 50 µM	2.9	> 50 µM	0.273 µM	> 50 µM	4.78 µM	> 50 µM
NC(=S)N/N=C1\C(=O)N(CCc2ccccc2)C(=O)C1C(=O)NCCc1ccccc1 (stereo unspecified)		> 100 µM		> 100		> 100 µM		> 100 µM		> 100 µM				> 100 µM				> 100 µM		> 100 µM
NC(=O)c1ccc2nc(-c3ccc(C4(N)CCC4)cc3)c(-c3ccccc3)n2n1	12.7	32.5 µM	10.5 µM	25.3	10.9 µM	23.3 µM	0.0734 µM	0.642 µM	6.27 µM	21.5 µM	0.741 µM	19.2 µM	17.4 µM	39.3 µM	11.7	28.5 µM	13.7 µM	36.9 µM	13.1 µM	30.1 µM
COc1ccc2c(c1)C(=O)c1c-2c(OCCN(C)C)nc2cc(OC)ccc12	1.33	3.32 µM	0.759 µM	2.14	1.73 µM	3.38 µM	1.39 µM	3.07 µM	1.2 µM	2.93 µM	0.32 µM	1.2 µM	0.957 µM	5.35 µM	0.804	2.8 µM	1.06 µM	2.82 µM	1.12 µM	2.84 µM
CCCCCCCCCCCCOC1C(CNCC2OC3OC(C)(C)OC3C2NC(=O)Nc2ccc(C(F)(F)F)cc2)OC2OC(C)(C)OC21 (stereo unspecified)	7.59	16.4 µM	3.7 µM	8.45	8.15 µM	15.1 µM	8.45 µM	15.5 µM	4.63 µM	12.2 µM			6.81 µM	18.1 µM	8.53	22 µM	0.0327 µM	2.62 µM	7.93 µM	16.6 µM
COc1ccc(C2=CC(c3ccc(Oc4ccnc5cc(Cl)ccc45)c(OC)c3)c3c(nc(OC)[nH]c3=O)N2)cc1 (stereo unspecified)	16.4	> 100 µM	5.91 µM	> 100	7.28 µM	34.1 µM	48 µM	> 100 µM	6.94 µM	> 100 µM			4.85 µM	> 100 µM	5.66	> 100 µM	3.73 µM	> 100 µM	5.09 µM	> 100 µM
COc1ccc(C(=O)Nc2ccc(S(=O)(=O)NCC(=O)O)cc2)cc1				> 100		> 100 µM		> 100 µM		> 100 µM		> 100 µM		> 100 µM		> 100 µM		> 100 µM		> 100 µM
C=CC[N+]1(CCO)CCN=C1CCCCCCCCCCCCC (stereo unspecified)	1.7	3.43 µM			1.6 µM	2.95 µM	2.09 µM	8.26 µM	1.33 µM	2.6 µM					1.83	3.3 µM				
CN(C)c1ccc(/C=C/c2ccnc3ccc4ccccc4c23)cc1				> 100		> 100 µM		69.1 µM		> 100 µM		> 100 µM		> 100 µM		> 100 µM		> 100 µM		> 100 µM
COc1ccc2nc3ccccc3c(NCCCCCN(CCCl)CCCl)c2c1		0.801 µM		2.14		0.433 µM				0.5 µM				2.2 µM		0.675 µM		0.502 µM		0.329 µM
COC1=C(C)C(=O)C2=C(C1=O)C(CO)N1C(C#N)C3CC4C(C1C2N1CCOC41)N3C (stereo unspecified)			0.0043 µM and 0.0305 µM		0.00264 µM and 0.0262 µM	0.214 µM and 0.0802 µM and 0.114 µM								0.257 µM and 0.404 µM and 0.0957 µM	0.0375	7.84 µM and 11.1 µM and 11.8 µM	0.00627 µM and < 0.01 µM	0.547 µM and 0.0682 µM and 0.123 µM		0.94 µM and 0.408 µM and 1.98 µM
CN(C)CCNC(=O)c1cccc2cc([N+](=O)[O-])ccc12					1.65 µM and 0.213 µM	4.92 µM and 0.774 µM	1.19 µM and 0.185 µM	4.53 µM and 0.91 µM	2.19 µM and 0.233 µM	11.9 µM and 2.79 µM	0.292 µM and 0.0829 µM	1.25 µM and 0.407 µM	0.605 µM and 0.157 µM	7.43 µM and 1.65 µM	0.183	2.22 µM	0.579 µM and 0.123 µM		1.87 µM and 0.22 µM	10.9 µM and 1.16 µM

SMILES	GI50 [1] [µM]	TGI [1]	GI50 [2]	TGI [2] [µM]	GI50 [3]	TGI [3]	GI50 [4]	TGI [4]	GI50 [5]	TGI [5]	GI50 [6]	TGI [6]	GI50 [7]	TGI [7]	GI50 [8] [µM]	TGI [8]	GI50 [9]	TGI [9]	GI50 [10]	TGI [10]
COc1cc(-c2nc3ccccc3[nH]2)ccc1OCC(=O)N=Nc1c(O)[nH]c2ccc(Cl)cc12	1.83	3.74 µM	1.41 µM	3.24	1.72 µM	3.2 µM	2.18 µM	5.42 µM	0.468 µM	1.88 µM	0.827 µM	3.12 µM			3.72	> 100 µM	0.454 µM	3.1 µM	1.66 µM	3.34 µM
CSc1c(S(C)=O)[nH]c2cc(Br)cc(Br)c12 (stereo unspecified)		67.9 µM		62.6		38.1 µM		62.1 µM				61.5 µM		61.8 µM		78.9 µM		72.3 µM		
COc1ccc2[nH]c3c(C)c4cc[n+](C)cc4c(C)c3c2c1	0.111	1.52 µM and 1.13 µM and 0.572 µM	0.34 µM and 0.817 µM		2.07 µM	7.15 µM [middle of 4 runs]		51.9 µM [middle of 4 runs]	0.0689 µM and 0.0524 µM		653 nM [middle of 4 runs]		0.0892 µM and 0.134 µM				2 µM [middle of 4 runs]		0.0504 µM and 0.0385 µM	
C=CCC(N[C@@H](CO)c1ccccc1)c1ccccn1 (stereo partly specified)	> 100	> 100 µM	> 100 µM	> 100	56.9 µM	> 100 µM	46.8 µM	> 100 µM	> 100 µM	> 100 µM			> 100 µM	> 100 µM	> 100	> 100 µM	34 µM	> 100 µM		
CCN1CCC2(CC1)NC(=O)c1c(c3ccc(Cl)c(Cl)c3n1C)C2C#N (stereo unspecified)	5.67	23.7 µM			1.61 µM	3.06 µM	1.34 µM	3.32 µM	2.83 µM	12 µM	2.43 µM	8.66 µM			3.13	13.5 µM	2.19 µM	6.21 µM		
CN(C)C(=S)/N=c1\ssc(=S)n1-c1ccccc1		26.9 µM		22.7		> 100 µM		57.7 µM		30.2 µM				28.5 µM		81.8 µM		42.6 µM		32.8 µM
NCCn1ccc(NC(c2ccccc2)(c2ccccc2)c2ccccc2)nc1=O		32.8 µM		52.3				> 100 µM		39.4 µM		44.8 µM		> 100 µM		75.7 µM		44.9 µM		31.4 µM
CCCCCCCCCCCCC/C=C1\C[C@H](O)COC1=O		32.9 µM		30.1		26.6 µM		33.7 µM		32 µM						38.7 µM		33.1 µM		38 µM
Clc1ccccc1C1N2CCCCC2[C@@H]2c3[nH]c4ccccc4c3CCN12 (stereo partly specified)								30.3 µM		31.9 µM		82.6 µM		39.9 µM				44.2 µM		38.4 µM
COc1ccc(OC)c(/C=C/C(=O)C(C)(C)C)c1		35.4 µM		52.9		29.1 µM		80 µM		43.1 µM		55.1 µM		38 µM		82.1 µM		55.8 µM		
CC1(C(=O)NCCN(CCNC(=O)C2(C)CC3(C)CC(C)(C2)C(=O)NC3=O)CCNC(=O)C2(C)CC3(C)CC(C)(C2)C(=O)NC3=O)CC2(C)CC(C)(C1)C(=O)NC2=O (stereo unspecified)				> 100				> 100 µM		> 100 µM		> 100 µM		> 100 µM		> 100 µM		> 100 µM		
CCOC(=O)C1(Br)C(c2ccccc2)NC(=O)N(C2OC(COC(=O)c3ccccc3)C(OC(=O)c3ccccc3)C2OC(=O)c2ccccc2)C1(C)Br (stereo unspecified)				99.6		31.3 µM		> 100 µM		> 100 µM		59 µM		> 100 µM		> 100 µM		19.3 µM		> 100 µM
Cc1cc2c(=O)cc(-c3ccc(C(F)(F)F)cc3)oc2c(C(=O)O)c1C		> 100 µM		> 100		> 100 µM				> 100 µM		> 100 µM		> 100 µM		> 100 µM		> 100 µM		> 100 µM
CCOC(=O)/C(=C/c1ccccc1)C(=O)c1ccccc1	3.48	18.9 µM	2.82 µM	7.54	2.91 µM	9.35 µM	3.08 µM	13.1 µM	3.22 µM	13.6 µM			2.4 µM	6.79 µM	4.4	19.9 µM			4.37 µM	21.1 µM
O=C(c1ccccn1)c1nc(-c2ccc(Cl)c(Cl)c2)nc2ccc(Cl)cc12		> 100 µM		> 100		> 100 µM		> 100 µM		> 100 µM		> 100 µM		> 100 µM		> 100 µM		> 100 µM		
COc1cc(/C=C2\CCCC3C2=Nc2ccccc2NC3c2cc(OC)c(OC)c(OC)c2)cc(OC)c1OC (stereo unspecified)	1.93	4.19 µM	0.863 µM	2.21	1.95 µM	5.72 µM	1.49 µM	6.41 µM			2.31 µM	5.4 µM	0.4 µM	42.9 µM	1.9	8.06 µM	2.1 µM	10.3 µM	2.02 µM	71.5 µM
O=C1NC2(CCCC2)/C(=N\O)C12CCCC2				> 100		> 100 µM		> 100 µM		> 100 µM		> 100 µM		> 100 µM		> 100 µM		> 100 µM		> 100 µM
